These results are taken from patent US20260240880A1, “AGENT FOR AMELIORATING OR TREATING DEMENTIA, PRIMARILY ALZHEIMER'S DEMENTIA” (HOMO C[…] AND DEVELOPMENT INSTITUTE, priority 2023, published 2026).

The nature of series [1]: Body weight measurement once a week during 24 weeks of daily administration. Conditions: APPosk mice; for Weight loss after 24 weeks of daily administration: i.p. once daily, 0.9 or 1.8 mg/kg; for Weight change: range. Also noted: Weight change / Weight change (average): unit not given here. It is filed as in vivo, mouse. An excerpt: (§1) Sixty-eight APPosk (SPF) male mice were produced according to the method described in Tomiyama T., Nagata T., Shimada H., Teraoka R., Fukushima A., Kanemitsu H., Takuma H., Kuwano R., Imagawa M., Ataka S., Wada Y., Yoshioka E., Nishizaki T., Watanabe Y., Mori H. A new amyloid β variant favoring oligomerization in Alzheimer's-type dementia. Ann. Neurol. 63, 377-387 (2008) at BioSafety Research Center Inc. (BSRC), which has a track record in producing model mice, and were raised until 24 weeks of age. These mice were then delivered to New Drug Research Center, Inc. and acclimatized until the preliminary breeding period. Note that quarantine was carried out from the date of arrival, considered as Day 0, up to Day 7. General observations were made daily, and body weights were measured on Day 1 (the day following the arrival), Day 3, and Day 7 after the arrival. Each individual was placed in a polysulfone cage and kept in an animal breeding room under conditions of a temperature of 22° C.±3° C., a humidity of 50%±20%, and a 12-hour light/dark cycle.
(§2) Of the 16 wild-type mice that arrived, 10 with weights close to the average were selected to form the normal group. Sixty-eight APPosk mice were delivered and assigned by stratified continuous randomization to the following groups: Pathological; Pathological+2ccPA (L); Pathological+2ccPA (H); Pathological+2cLPA (L); and Pathological+2cLPA (H). L: Low dose (0.9 mg/kg); H: High dose (1.8 mg/kg)
(§3) The dosing solution was filled into a syringe (disposable syringe) equipped with a 26G needle, and administered intraperitoneally once daily for 168 days (24 weeks). On the day when the Morris water maze test was performed, the dosing solution was administered after the Morris water maze test.
Body weight was measured using an electronic balance once a week. Each time, the measurement was carried out twice at different times.

In series [2] the test system is Alzheimer's dementia model mouse (APPosk). In words: Morris water maze test (escape latency). Format: in vivo. Conditions: APPosk mice; for Memory improvement effect in the Morris water maze test: i.p. once daily for 168 days (24 weeks), tested at 48 weeks of age; for Memory effect in the Morris water maze test at low dose: low dose 0.9 mg/kg i.p. once daily for 24 weeks.
Text: as §1, §2, §3
When the mice reached 12 months of age (48 weeks of age), the Morris water maze test was performed.
The water maze (diameter: 90 cm; height: 60 cm; water temperature: approximately 22° C.) was made opaque with a white non-toxic paint (skim milk) and divided into four virtual quadrants (east, west, north, and south). A circular platform having a diameter of 8 cm was submerged approximately 1 cm below the water surface and placed near the center of the north quadrant. Black markers were placed on the walls of the water maze as extramaze cues.
The time it took to reach the platform placed in the water maze (escape latency) was measured over 4 days. Each animal underwent five consecutive trials, with an interval of approximately 20 seconds between the end and start of each trial.
Each trial began with the mouse being placed in any quadrant except the north quadrant, with its face facing the outer edge of the water maze. A webcam (Logicool HD Webcam C615) and SMART v3.0 (Panlab Harvard Apparatus) were used for measurement and analysis. […]

For series [3], the system named is tau protein and phosphorylated tau protein. In words: Quantitative determination of tau protein and phosphorylated tau protein (immunostaining of brain sections). It is filed as in vivo, mouse. The settings on record: for Suppression of phosphorylation of tau protein: APPosk mice, low dose; for Phosphorylated tau (Ser396) area/Hippocampus area (average) / Phosphorylated tau (Ser404) area/Hippocampus area (average) / Tau protein area/Hippocampus area (average) / Phosphorylated tau (Ser396) area/Hippocampus area / Phosphorylated tau (Ser404) area/Hippocampus area / Tau protein area/Hippocampus area: APPosk-Tg mice, low dose (L) 0.9 mg/kg; for Phosphorylated tau (Ser396) area/Hippocampus area / Phosphorylated tau (Ser404) area/Hippocampus area / Tau protein area/Hippocampus area: range; for Tau protein area/Hippocampus area: five sections. The source says: After exsanguination, 6 of the 10 individuals in each group (with numbers ending in 1 to 6) were perfused with phosphate-buffered saline (PBS) and then perfused again with 4% paraformaldehyde (PFA) to fix the brains, after which the brains were removed. The extracted brains were then infiltrated and fixed using the same fixative solution. The remaining four individuals in each group (with numbers ending in 7 to 10) were perfused whole body with PBS, and then their brains were extracted and frozen using liquid nitrogen.
Serial sections (thickness: 40 μm) of fixed mouse […] were prepared using a cryostat. The sections were incubated overnight with primary antibodies and then for 1 hour with secondary antibodies. Stained images were then captured using a confocal microscope (Carl Zeiss) and quantified using NIH ImageJ. The primary antibodies used were non-phosphorylated tau antibody (Invitrogen), phosphorylated tau (Ser396) antibody (Invitrogen), and phosphorylated tau (Ser404) antibody (Invitrogen), and the secondary antibodies used were biotinylated goat anti-mouse IgG antibody (Vector Lab.) and biotinylated goat anti-rabbit IgG antibody (Vector Lab.). Quantitative determination was carried out using five sections each.
Quantitative determination of tau protein and phosphorylated tau protein in the hippocampus of normal, pathological, pathological+2ccPA (low dose), and pathological+2cLPA (low dose) mice

The nature of series [4]: In vivo hippocampal microdialysis with LC/MS determination of 2ccPA (blood-brain barrier crossing). Also noted: species or system mouse. The settings on record: 0.9 mg/kg i.p.; for 2ccPA concentration in microdialysis recovery fluid: hippocampus. Here is the method:
To confirm that 2ccPA crosses the blood-brain barrier (BBB) and enters the brain, an experiment was conducted at the Kurume Modality Analysis Laboratory of BioSafety Research Center Inc. (BSRC), which has a long track record in microdialysis, and the Institute for Disease Modeling, Kurume University School of Medicine.
2ccPA was administered intraperitoneally to 33-week-old male C57BL/6J-Aged mice (SPF, Jackson Laboratory Japan, Inc.) with a dialysis probe (FX-I-4-02, EICOM) placed in the hippocampus of the mouse brain. After that, the brain microdialysis perfusate was collected at […], 1 hour before administration and every 30 minutes (0.5 to 5.0 hours) after administration, using the in vivo microdialysis method.
The hippocampal guide cannula placement surgery was performed under isoflurane anesthesia, with a guide cannula and a dummy cannula placed at the hippocampal coordinate position (AP=−3.1 mm; ML=+2.7 mm; DV=−3.7 mm). After surgery, Vetorphale was administered subcutaneously for analgesia. Three to five days after the cannula was placed, the cannula was replaced with a dialysis probe under isoflurane inhalation anesthesia, and pre-perfusion (perfusion solution: saline containing 0.15% BSA) was then initiated.
2ccPA administration was performed under isoflurane anesthesia. D-PBS(−) containing 0.1% BSA was added to […], and the mixture was dispersed by ultrasonic treatment, thereby preparing a dosing solution.
The dosing solution was diluted with D-PBS(−) containing 0.1% BSA to a concentration of 0.9 mg/kg/day, and then sonicated individually just immediately administration. The administration route was intraperitoneal administration.
The microdialysis perfusate was collected at 11 time points: 1 hour before administration and 0.5, 1.0, 1.5, 2.0, 2.5, 3.0, 3.5, 4.0, 4.5, and 5.0 hours after administration, and each was collected into ice-cooled siliconized tubes.
Five mice in each test group underwent hippocampal cannula placement surgery, replacement with a dialysis probe, administration of the test substance, and collection of the microdialysis perfusate. The collected solution was added to an ice-cold acid-methanol solution (pH 4), stirred, and then promptly frozen in liquid nitrogen and stored at −80° C.
The concentration of 2ccPA in the perfusate collected by microdialysis from mice administered with 2ccPA was measured using LC/MS. The conditions are as follows: Shimizu Y., Fukasawa K., Yamamoto S., Shibike Y., Tsukahara R., Ishikawa M., Iwasa K., Yoshikawa K., Gotoh M., Murakami-Murofushi K. Evaluation of the pharmacokinetics of 2-carba-cyclic phosphatidic acid by liquid chromatography-triple quadrupole mass spectrometry
The standard solution for the calibration curve was prepared by adding ethanol to the standard substance, 2ccPA, dissolving it, and then mixing it with the blank matrix. The internal standard solution (IStd) was prepared by adding ultrapure water to the internal standard substance (ranitidine hydrochloride), dissolving it, and then diluting it with ultrapure water (10 ng/mL). The measurement specimen (microdialysis perfusate) was prepared by adding an acidic methanol solution (pH 4) in an amount five times the volume of the sample.
The measurement samples (the measurement specimen and the standard solution for the calibration curve) were deproteinized by adding a specimen treatment solution containing the internal standard solution to each sample. After centrifugation, the supernatant was filtered, and the 2ccPA concentration was measured using a Q Exactive Ultimate 3000 system (Thermo Scientific), thereby yielding the following results.

The mark [5] stands for this setting: high dose (H) 1.8 mg/kg i.p. once daily for 24 weeks.
The mark [6] stands for this setting: low dose (L) 0.9 mg/kg i.p. once daily for 24 weeks.

“Also recorded” adds a separate entry of the source.

For `CCCCCCCCC=CCCCCCCCC(=O)OCC1COP(=O)(O)C1` (stereo not shown) [2ccPA, oleoyl-2-carba-cPA], the “Weight loss after 24 weeks of daily administration” value in series [1] was “No weight loss was observed”. Besides, the “Weight change (average)” value in series [1] (setting [5]) is 32.1; in series [1] (setting [6]) it was 32.3. In addition, the Weight change is 30.6-32.8 in series [1] (setting [5]) and 31.4-33.6 in series [1] (setting [6]). In addition, in series [2], the “Memory improvement effect in the Morris water maze test” value is reported as “significantly improved memory; also recorded: significantly improve memory decline”. Besides, the “Memory effect in the Morris water maze test at low dose” value in series [2] (0.9 mg/kg) is “memory maintenance effect comparable to that of the normal group; also recorded: clear effects”. For the same compound, the “Suppression of phosphorylation of tau protein” value in series [3] is listed as “significantly suppress the phosphorylation of tau protein”. Moreover, in series [3], the “Phosphorylated tau (Ser396) area/Hippocampus area (average)” value is given as “(2.3) %”. The “Phosphorylated tau (Ser404) area/Hippocampus area (average)” value in series [3] is recorded as “(0.5) %”. Also, in series [3], the “Tau protein area/Hippocampus area (average)” value is reported as “(17.4) %”. Moreover, the “Phosphorylated tau (Ser396) area/Hippocampus area” value in series [3] is listed as 2.0-4.9%. The “Phosphorylated tau (Ser404) area/Hippocampus area” value in series [3] was 0.4-1.7%. The “Tau protein area/Hippocampus area” value in series [3] was 7.7-19.5%. Besides, the “2ccPA concentration in microdialysis recovery fluid” value in series [4] (0.5 hours after administration) was found to be 1.90 ng/mL; in series [4] (1.0 hours after administration), 2.22 ng/mL; in series [4] (1.5 hours after administration), 2.81 ng/mL; in series [4] (2.0 hours after administration) it was 2.24 ng/mL; in series [4] (2.5 hours after administration) it was 1.64 ng/mL; in series [4] (3.0 hours after administration), 1.80 ng/mL. For the same compound, the “2ccPA concentration in microdialysis recovery fluid” value worked out at 2.32 ng/mL in series [4] (3.5 hours after administration); 2.12 ng/mL in series [4] (4.0 hours after administration); 2.12 ng/mL in series [4] (4.5 hours after administration); 1.22 ng/mL in series [4] (5.0 hours after administration); 0 ng/mL in series [4] (time 0 (before administration), C57BL/6J-Aged mice). The “Crossing of the blood-brain barrier” value in series [4] (mice, hippocampal microdialysis) is reported as “passed through the barrier of endothelial cells that line the walls of brain capillaries”.

As to oleoyl-2-carba-LPA [2cLPA], the “Weight loss after 24 weeks of daily administration” value in series [1] is recorded as “No weight loss was observed”. In addition, in series [1] (setting [5]), the “Weight change (average)” value came out at 30.2 and the Weight change was 29.6-31.9. Further, in series [1] (setting [6]), the “Weight change (average)” value is on record as 32.0 and the Weight change was 30.8-33.3. Moreover, in series [2], the “Memory improvement effect in the Morris water maze test” value is on record as “significantly improved memory; also recorded: significantly improve memory decline” and the “Memory effect in the Morris water maze test at low dose” value is recorded as “clear effects”. In series [3], the “Suppression of phosphorylation of tau protein” value is “significantly suppress the phosphorylation of tau protein”, the “Phosphorylated tau (Ser396) area/Hippocampus area (average)” value is listed as “(2.4) %”, the “Phosphorylated tau (Ser404) area/Hippocampus area (average)” value is “(1.2) %” and the “Tau protein area/Hippocampus area (average)” value is recorded as “(19.0) %”. Also, in series [3], the “Phosphorylated tau (Ser396) area/Hippocampus area” value was 0.5-4.7%, the “Phosphorylated tau (Ser404) area/Hippocampus area” value is reported as 0.9-1.8% and the “Tau protein area/Hippocampus area” value was 10.6-36.2%.
